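Protocol summary: plate cells (96-well), add compound at 5 concentrations, incubate 48 h, interpolate endpoints linearly. GI50 marks 50% less growth.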 The source made the active and inactive calls. Rule as the data show it: active = GI50 up to about 1.1 µM and inactive = higher.
Experiments:
Assay in all cases: DTP human tumour cell line panel, 48 h
DMS-273 = test system: DMS-273
LXFL 529 = test system: LXFL 529
SNB-78 = test system: SNB-78
XF498 = test system: XF498
KM-20L2 = test system: KM-20L2
RXF 631 = test system: RXF 631
HOP-18 = test system: HOP-18
M19-MEL = test system: M19-MEL
DLD-1 = test system: DLD-1

O=C(/C=C\c1cccc2ccccc12)c1cccc2ccccc12
GI50 (DMS-273): 9.08 µM (inactive) | GI50 (LXFL 529): 9.38 µM (inactive) | GI50 (SNB-78): > 10 µM (inactive) | GI50 (XF498): 7.57 µM (inactive) | GI50 (KM-20L2): 9.55 µM (inactive) | GI50 (RXF 631): 7.89 µM (inactive) | GI50 (HOP-18): > 10 µM (inactive) | GI50 (M19-MEL): 11.4 µM (inactive) | GI50 (DLD-1): 5.43 µM (inactive)

N#Cc1c2c(c(N=P(c3ccccc3)(c3ccccc3)c3ccccc3)n3c1nc1ccccc13)CCCC2
GI50 (DMS-273): 14.5 µM (inactive) | GI50 (LXFL 529): 20.6 µM (inactive) | GI50 (SNB-78): 21.3 µM (inactive) | GI50 (KM-20L2): 17.4 µM (inactive) | GI50 (RXF 631): 29 µM (inactive) | GI50 (HOP-18): 25.9 µM (inactive) | GI50 (M19-MEL): 18 µM (inactive) | GI50 (DLD-1): 32.8 µM (inactive)

CCN(CC)CCNC(=O)c1nn(C)c(=S)[nH]c1=S
GI50 (DMS-273): > 100 µM (inactive) | GI50 (LXFL 529): > 100 µM (inactive) | GI50 (SNB-78): > 100 µM (inactive) | GI50 (XF498): > 100 µM (inactive) | GI50 (KM-20L2): > 100 µM (inactive) | GI50 (HOP-18): > 100 µM (inactive) | GI50 (M19-MEL): > 100 µM (inactive) | GI50 (DLD-1): > 100 µM (inactive)

COC(=O)C1=C(C(=O)OC)C23CC4CCC2(C(=O)C1O3)C4(C)C (configuration not stated)
GI50 (LXFL 529): > 100 µM (inactive) | GI50 (XF498): > 100 µM (inactive) | GI50 (KM-20L2): > 100 µM (inactive) | GI50 (HOP-18): 95.9 µM (inactive) | GI50 (M19-MEL): > 100 µM (inactive) | GI50 (DLD-1): 57.1 µM (inactive)

COC(=O)N/N=C(\Cc1ccccc1)CN(C)C
GI50 (DMS-273): > 100 µM (inactive) | GI50 (LXFL 529): > 100 µM (inactive) | GI50 (SNB-78): > 100 µM (inactive) | GI50 (XF498): > 100 µM (inactive) | GI50 (KM-20L2): > 100 µM (inactive) | GI50 (RXF 631): > 100 µM (inactive) | GI50 (M19-MEL): > 100 µM (inactive) | GI50 (DLD-1): > 100 µM (inactive)

CCOC(OCC)C(CC)[Se]c1ccccc1[N+](=O)[O-] (configuration not stated)
GI50 (DMS-273): 1.01 µM (active) | GI50 (LXFL 529): 4.39 µM (inactive) | GI50 (SNB-78): 7.76 µM (inactive) | GI50 (XF498): 2.92 µM (inactive) | GI50 (KM-20L2): 1.96 µM (inactive) | GI50 (HOP-18): 11.8 µM (inactive) | GI50 (M19-MEL): 4.42 µM (inactive) | GI50 (DLD-1): 3.1 µM (inactive)

O=c1cc2n(c(=O)[nH]1)C1OC(C(O)C1O)[C@@H]2CCO (some centres not stated)
GI50 (DMS-273): > 100 µM (inactive) | GI50 (LXFL 529): > 100 µM (inactive) | GI50 (SNB-78): > 100 µM (inactive) | GI50 (KM-20L2): > 100 µM (inactive) | GI50 (M19-MEL): > 100 µM (inactive) | GI50 (DLD-1): > 100 µM (inactive)

CCSC1=C(C)N(/C=N/C(C)(C)C)CC1
GI50 (DMS-273): > 100 µM (inactive) | GI50 (LXFL 529): > 100 µM (inactive) | GI50 (SNB-78): > 100 µM (inactive) | GI50 (XF498): > 100 µM (inactive) | GI50 (KM-20L2): > 100 µM (inactive) | GI50 (RXF 631): > 100 µM (inactive) | GI50 (HOP-18): > 100 µM (inactive) | GI50 (M19-MEL): > 100 µM (inactive) | GI50 (DLD-1): > 100 µM (inactive)

CC(C)(C)CC(C)(C)c1cc2c(O)c(c1)Cc1cc(C(C)(C)CC(C)(C)C)cc(c1O)Cc1cc(C(C)(C)CC(C)(C)C)cc(c1O)Cc1cc(C(C)(C)CC(C)(C)C)cc(c1O)Cc1cc(C(C)(C)CC(C)(C)C)cc(c1O)Cc1cc(C(C)(C)CC(C)(C)C)cc(c1O)C2
GI50 (DMS-273): > 100 µM (inactive) | GI50 (LXFL 529): > 100 µM (inactive) | GI50 (SNB-78): > 100 µM (inactive) | GI50 (XF498): > 100 µM (inactive) | GI50 (KM-20L2): > 100 µM (inactive) | GI50 (RXF 631): > 100 µM (inactive) | GI50 (M19-MEL): > 100 µM (inactive) | GI50 (DLD-1): > 100 µM (inactive)

C[C@]12CC[C@H](O)CC1=CC[C@@H]1C2CC[C@]2(C)Nc3c(cnn3-c3ccccc3)CC12 (some centres not stated)
GI50 (DMS-273): 0.869 µM (active) | GI50 (LXFL 529): 4.06 µM (inactive) | GI50 (SNB-78): 8.2 µM (inactive) | GI50 (KM-20L2): 1.38 µM (inactive) | GI50 (RXF 631): 0.44 µM (active) | GI50 (M19-MEL): 5.35 µM (inactive) | GI50 (DLD-1): 3.52 µM (inactive)

Cc1ccccc1C(CCCO)C(=O)O (configuration not stated)
GI50 (DMS-273): > 100 µM (inactive) | GI50 (LXFL 529): > 100 µM (inactive) | GI50 (SNB-78): > 100 µM (inactive) | GI50 (XF498): > 100 µM (inactive) | GI50 (M19-MEL): > 100 µM (inactive) | GI50 (DLD-1): > 100 µM (inactive)

CN(C)CC/C(=N\Nc1ccc([N+](=O)[O-])cc1)c1ccccc1
GI50 (DMS-273): 10.3 µM (inactive) | GI50 (LXFL 529): 5.83 µM (inactive) | GI50 (SNB-78): 4.4 µM (inactive) | GI50 (KM-20L2): 4.33 µM (inactive) | GI50 (HOP-18): 7.62 µM (inactive) | GI50 (DLD-1): 13.3 µM (inactive)

Cc1ccc(S(=O)(=O)N/N=C/c2oc(-c3cccc([N+](=O)[O-])c3)c(-c3cccc([N+](=O)[O-])c3)c2[N+](=O)[O-])cc1
GI50 (LXFL 529): 36.7 µM (inactive) | GI50 (XF498): > 100 µM (inactive) | GI50 (KM-20L2): > 100 µM (inactive) | GI50 (RXF 631): 62.1 µM (inactive) | GI50 (HOP-18): > 100 µM (inactive) | GI50 (DLD-1): 32.2 µM (inactive)

O=C(Nc1ccccc1)N1C(c2ccccc2)=N[C@@H](c2ccccc2)[C@@H]1c1ccccc1
GI50 (LXFL 529): 15.6 µM (inactive) | GI50 (SNB-78): 33.7 µM (inactive) | GI50 (KM-20L2): 18.1 µM (inactive) | GI50 (RXF 631): 35.2 µM (inactive) | GI50 (HOP-18): 18.9 µM (inactive) | GI50 (M19-MEL): 19.5 µM (inactive) | GI50 (DLD-1): 15.1 µM (inactive)

CCOc1ccccc1NC(=O)C1=C(C)NC(C)=C(C(=O)Nc2ccccc2OCC)C1c1ccc(NC(C)=O)cc1
GI50 (LXFL 529): 47.6 µM (inactive) | GI50 (SNB-78): 40.9 µM (inactive) | GI50 (XF498): 9.68 µM (inactive) | GI50 (KM-20L2): 25.8 µM (inactive) | GI50 (M19-MEL): 28.2 µM (inactive) | GI50 (DLD-1): 37 µM (inactive)

COC(=O)C1CC2(CC3=C1CCCC3)OCCO2 (configuration not stated)
GI50 (DMS-273): > 100 µM (inactive) | GI50 (LXFL 529): > 100 µM (inactive) | GI50 (SNB-78): > 100 µM (inactive) | GI50 (XF498): > 100 µM (inactive) | GI50 (RXF 631): > 100 µM (inactive) | GI50 (M19-MEL): > 100 µM (inactive) | GI50 (DLD-1): > 100 µM (inactive)

On1c(-c2ccccc2)c(-c2c(-c3ccccc3)n(O)c3ccccc23)c2ccccc21
GI50 (DMS-273): 39.6 µM (inactive) | GI50 (LXFL 529): 3.18 µM (inactive) | GI50 (SNB-78): 35.7 µM (inactive) | GI50 (XF498): 19.8 µM (inactive) | GI50 (HOP-18): 26.1 µM (inactive) | GI50 (M19-MEL): 11.2 µM (inactive) | GI50 (DLD-1): 54.6 µM (inactive)

CCOC(=O)c1ccc(N2C(=O)/C(=C\OC)c3ccccc3C2=O)cc1
GI50 (DMS-273): 33.1 µM (inactive) | GI50 (LXFL 529): 23.6 µM (inactive) | GI50 (SNB-78): 43.7 µM (inactive) | GI50 (KM-20L2): 37 µM (inactive) | GI50 (M19-MEL): 75.2 µM (inactive)

CC[n+]1c(/C=C/c2ccc(N(CCCl)CCCl)cc2)ccc2cc(I)ccc21
GI50 (DMS-273): 0.525 µM (active) | GI50 (LXFL 529): 0.409 µM (active) | GI50 (SNB-78): 0.895 µM (active) | GI50 (KM-20L2): 1.02 µM (active) | GI50 (RXF 631): 1.77 µM (inactive) | GI50 (HOP-18): 1.02 µM (active) | GI50 (M19-MEL): 0.608 µM (active) | GI50 (DLD-1): 1.58 µM (inactive)

COC1=C(OC)C(=O)c2cc(SC)c(=O)c(SC)cc2C1=O
GI50 (DMS-273): 25.5 µM (inactive) | GI50 (LXFL 529): 15.8 µM (inactive) | GI50 (XF498): 5.14 µM (inactive) | GI50 (KM-20L2): > 100 µM (inactive) | GI50 (HOP-18): 20.2 µM (inactive) | GI50 (DLD-1): 28.4 µM (inactive)

CCOC(=O)C1=C(c2ccccc2)N(C(C)=O)Cc2ccccc21
GI50 (DMS-273): 15.1 µM (inactive) | GI50 (LXFL 529): 22.5 µM (inactive) | GI50 (XF498): 11.9 µM (inactive) | GI50 (KM-20L2): 21.6 µM (inactive) | GI50 (HOP-18): 28.1 µM (inactive) | GI50 (M19-MEL): 18.8 µM (inactive) | GI50 (DLD-1): 28.7 µM (inactive)

CCCc1c(C(=O)OCC)[nH]c(-c2ccc(-c3[nH]c(C(=O)OCC)c(CCC)c3C(=O)OCC)s2)c1C(=O)OCC
GI50 (DMS-273): 30.7 µM (inactive) | GI50 (LXFL 529): 33 µM (inactive) | GI50 (SNB-78): > 100 µM (inactive) | GI50 (XF498): 27.3 µM (inactive) | GI50 (KM-20L2): 72.1 µM (inactive) | GI50 (HOP-18): > 100 µM (inactive) | GI50 (M19-MEL): 52.8 µM (inactive) | GI50 (DLD-1): > 100 µM (inactive)

O=C1Oc2cc3c(c4cccc1c24)OCN(c1ccc(Cl)cc1)C3
GI50 (DMS-273): 0.423 µM (active) | GI50 (LXFL 529): 0.622 µM (active) | GI50 (SNB-78): > 100 µM (inactive) | GI50 (XF498): 16.7 µM (inactive) | GI50 (HOP-18): 34 µM (inactive) | GI50 (M19-MEL): 14.4 µM (inactive) | GI50 (DLD-1): 5.42 µM (inactive)

O[C@]12c3ccccc3C1CCCCC2N1CCOCC1 (some centres not stated)
GI50 (DMS-273): > 100 µM (inactive) | GI50 (LXFL 529): > 100 µM (inactive) | GI50 (SNB-78): > 100 µM (inactive) | GI50 (XF498): > 100 µM (inactive) | GI50 (KM-20L2): > 100 µM (inactive) | GI50 (HOP-18): > 100 µM (inactive) | GI50 (M19-MEL): > 100 µM (inactive)

CCCCCC/C=C/CCCCCCCc1cccc(O)c1C(=O)O
GI50 (DMS-273): 34.9 µM (inactive) | GI50 (LXFL 529): 45.4 µM (inactive) | GI50 (SNB-78): > 100 µM (inactive) | GI50 (XF498): > 100 µM (inactive) | GI50 (KM-20L2): > 100 µM (inactive) | GI50 (RXF 631): > 100 µM (inactive) | GI50 (HOP-18): 48.4 µM (inactive) | GI50 (M19-MEL): > 100 µM (inactive) | GI50 (DLD-1): 43.6 µM (inactive)

O=P(Oc1ccc2ccccc2c1)(N1CC1)N1CC1
GI50 (DMS-273): 6.21 µM (inactive) | GI50 (LXFL 529): > 100 µM (inactive) | GI50 (SNB-78): > 100 µM (inactive) | GI50 (XF498): 17.7 µM (inactive) | GI50 (KM-20L2): > 100 µM (inactive) | GI50 (HOP-18): 22.6 µM (inactive) | GI50 (M19-MEL): 13.5 µM (inactive) | GI50 (DLD-1): 92.3 µM (inactive)
